In patent publication US4173629A, “Antibiotic S 31794/F-1” (Sandoz Ltd., priority 1975, dated 1979):
≈ marks a conversion by molar mass, not a printed value. *1 amine or outer side, *2 acyl side, *3 side chain or, on linkers, in order; H or OH if unused. Where a SMILES comes first, the peptide text is derived from it. Bridges are numbered along the chain shown (N, C = ends). [ ]: non-standard residue; d: D form. The star is where a group is joined. Orn(4R-OH,5R-OH) = O=C([C@H](C[C@@H](O)[C@@H](O)N[*:3])N[*:1])[*:2]; hTyr(3S-OH,4S-OH) = N[C@H](C(=O)O)[C@H](O)[C@@H](O)c1ccc(O)cc1; Pro(3S-OH,4S-Me) = C[C@H]1CN[C@H](C(=O)O)[C@H]1O; Gln(3R-OH) = NC(=O)C[C@@H](O)[C@H](N)C(=O)O; Hyp = O=C(O)[C@@H]1C[C@@H](O)CN1; Myristoyl = CCCCCCCCCCCCCC(=O)*

Tests used:
[1] = tested on: usual gram-positive and gram-negative bacteria; assay: activity spectrum, bacteria; type: cell-based
[2] = tested on: yeast and fungi, particularly Candida strains; assay: activity spectrum, yeast and fungi; type: cell-based
Method: (§1) The MIC (minimum inhibiting concentration) values are obtained in the well known series dilution test. The incubation was effected in a malt extract medium (2%) having a pH of 5.2-5.4 at 27° C. for 48 to 72 hours. The test strains are well known and have been deposited in the fungi collection of the firm Sandoz, Basel, where they are available for examination.

[3] = tested on: Candida krusei; assay: MIC, series dilution test; type: cell-based; conditions: malt extract medium (2%), pH 5.2-5.4, 27° C., 48 to 72 hours
Method: as §1

[4] = tested on: Candida albicans; assay: MIC, series dilution test; type: cell-based; conditions: malt extract medium (2%), pH 5.2-5.4, 27° C., 48 to 72 hours
Method: as §1

[5] = tested on: Candida tropicalis CK 4; assay: MIC, series dilution test; type: cell-based; conditions: malt extract medium (2%), pH 5.2-5.4, 27° C., 48 to 72 hours
Method: as §1

[6] = tested on: Curvularia lunata; assay: MIC, series dilution test; type: cell-based; conditions: malt extract medium (2%), pH 5.2-5.4, 27° C., 48 to 72 hours
Method: as §1

[7] = tested on: Candida albicans 439; assay: MIC, series dilution test; type: cell-based; conditions: malt extract medium (2%), pH 5.2-5.4, 27° C., 48 to 72 hours
Method: as §1

[8] = tested on: Trichophyton quinckeanum; assay: MIC, series dilution test; type: cell-based; conditions: malt extract medium (2%), pH 5.2-5.4, 27° C., 48 to 72 hours
Method: as §1

[9] = tested on: Aspergillus fumigatus; assay: MIC, series dilution test; type: cell-based; conditions: malt extract medium (2%), pH 5.2-5.4, 27° C., 48 to 72 hours
Method: as §1

[10] = tested on: Trichophyton mentagrophytes; assay: MIC, series dilution test; type: cell-based; conditions: malt extract medium (2%), pH 5.2-5.4, 27° C., 48 to 72 hours
Method: as §1

[11] = tested on: Sporotrichum schenkii; assay: MIC, series dilution test; type: cell-based; conditions: malt extract medium (2%), pH 5.2-5.4, 27° C., 48 to 72 hours
Method: as §1

[12] = tested on: Candida albicans 5897; assay: MIC, series dilution test; type: cell-based; conditions: malt extract medium (2%), pH 5.2-5.4, 27° C., 48 to 72 hours
Method: as §1

[13] = tested on: Microsporum canis; assay: MIC, series dilution test; type: cell-based; conditions: malt extract medium (2%), pH 5.2-5.4, 27° C., 48 to 72 hours
Method: as §1

[14] = tested on: Neurospora crassa; assay: MIC, series dilution test; type: cell-based; conditions: malt extract medium (2%), pH 5.2-5.4, 27° C., 48 to 72 hours
Method: as §1

[15] = tested on: Candida tropicalis; assay: MIC, series dilution test; type: cell-based; conditions: malt extract medium (2%), pH 5.2-5.4, 27° C., 48 to 72 hours
Method: as §1

[16] = tested on: Aspergillus niger; assay: MIC, series dilution test; type: cell-based; conditions: malt extract medium (2%), pH 5.2-5.4, 27° C., 48 to 72 hours
Method: as §1

[17] = tested on: Candida albicans H 12; assay: MIC, series dilution test; type: cell-based; conditions: malt extract medium (2%), pH 5.2-5.4, 27° C., 48 to 72 hours
Method: as §1

[18] = tested on: Candida albicans Blast. res.; assay: MIC, series dilution test; type: cell-based; conditions: malt extract medium (2%), pH 5.2-5.4, 27° C., 48 to 72 hours
Method: as §1

[19] = tested on: Blastomyces dermatitidis; assay: MIC, series dilution test; type: cell-based; conditions: malt extract medium (2%), pH 5.2-5.4, 27° C., 48 to 72 hours
Method: as §1

[20] = Stability; type: physicochemical
[21] = Solubility; type: physicochemical

SMILES: CCCCCCCCCCCCCC(=O)N[C@H]1C[C@@H](O)[C@@H](O)NC(=O)[C@@H]2[C@@H](O)[C@@H](C)CN2C(=O)[C@H]([C@H](O)CC(N)=O)NC(=O)[C@H]([C@H](O)[C@@H](O)c2ccc(O)cc2)NC(=O)[C@@H]2C[C@@H](O)CN2C(=O)[C@H]([C@@H](C)O)NC1=O [S 31794/F-1] (Myristoyl-[Orn(4R-OH,5R-OH)]T[Hyp][hTyr(3S-OH,4S-OH)][Gln(3R-OH)][Pro(3S-OH,4S-Me)]; lactam 1-C)
- effect against the usual gram-positive and gram-negative bacteria [1]: does not exhibit a significant effect
- effect against yeast and fungi, particularly against Candida strains [2]: pronounced effect
- MIC (minimum inhibiting concentration) [3]: 1 µg/mL (≈ 0.951 µM)
- MIC (minimum inhibiting concentration) [4]: 0.3 µg/mL (≈ 0.285 µM)
- MIC (minimum inhibiting concentration) [5]: 0.01 µg/mL (≈ 0.00951 µM)
- MIC (minimum inhibiting concentration) [6]: > 100 µg/mL
- MIC (minimum inhibiting concentration) [7]: 0.03 µg/mL (≈ 0.0285 µM)
- MIC (minimum inhibiting concentration) [8]: > 100 µg/mL
- MIC (minimum inhibiting concentration) [9]: 32 µg/mL (≈ 30.4 µM)
- MIC (minimum inhibiting concentration) [10]: 32 µg/mL (≈ 30.4 µM)
- MIC (minimum inhibiting concentration) [11]: > 100 µg/mL
- MIC (minimum inhibiting concentration) [12]: 0.3 µg/mL (≈ 0.285 µM)
- MIC (minimum inhibiting concentration) [13]: 100 µg/mL (≈ 95.1 µM)
- MIC (minimum inhibiting concentration) [14]: > 100 µg/mL
- MIC (minimum inhibiting concentration) [15]: 0.3 µg/mL (≈ 0.285 µM)
- MIC (minimum inhibiting concentration) [16]: 100 µg/mL (≈ 95.1 µM)
- MIC (minimum inhibiting concentration) [17]: 0.3 µg/mL (≈ 0.285 µM)
- MIC (minimum inhibiting concentration) [18]: 0.03 µg/mL (≈ 0.0285 µM)
- MIC (minimum inhibiting concentration) [19]: 100 µg/mL (≈ 95.1 µM)
- Stability ([20]; alkaline or strong acidic conditions): decomposes, losing its anti-fungal activity
- Stability ([20]; aqueous methanol at pH 3-7.5): stable
- Solubility ([21]; in methanol, ethanol, pyridine and dimethyl sulphoxide): easily soluble
- Solubility ([21]; in water, chloroform, ethyl acetate, diethyl ether, benzene and hexane): difficulty soluble
